According to patent publication US4067997A, “Synergistic microbecidal composition and method” (priority 1976, dated 1978):
Converted amounts (≈) assume the structure as drawn. Read-outs that look alike come from different tables or passages of the source. Values belong to the molecule of their own block, whether it stands above or below them.

Assays:
S. pyogenes = assay: Growth curve by optical density (Example IV, FIG. 3); format: cell-based, streptococcus pyogenes; details: 24 hours
Method: To a series of containers is added 40 ml of Trypticase Soy Broth and 0.5 ml of streptococcus pyogenes (10^8 organisms/ml). To respective containers are added the following: (1) 10 μg of glycerol 1-mono-laurinand 10 μg of glycerol dilaurin; (2) 5 μg of glycerol 1-mono-laurin and 5 μg of glycerol dilaurin; (3) 10 μg of glycerol 1-mono-laurin; and (4) 5 μg of glycerol 1-mono-laurin; and (5) a control without any additives. The rate of growth of the S. pyogenes was followed for 24 hours at 6 hour intervals by reading the optical density of the cultures at […] in a spectrophotometer.

[1] = test system: nine gram-positive organisms and the yeast/fungus Candida; assay: MIC, broth dilution, over all organisms (Examples I/II); format: cell-based
Method: (§1) In order to establish comparative bactericidal and fungicidal results with homologous fatty acids, a series of experiments was performed with thirty straight-chain fatty acids and derivatives thereof. Eight different gram-negative and twelve different gram-positive organisms, representing a very broad spectrum of organisms, were used in these experiments including the fungus Candida (a yeast). Additionally, fatty acids were chosen to show the effects of saturation versus unsaturation, in the fatty acid claim. Standard solutions of the fatty acids and their derivatives were prepared by first dissolving the weighed compounds in 1 to 2 ml of 95% ethanol and immediately pouring this solution into 200 ml of Tripticase Soy Broth. These lipid compounds which are insoluble in water and broth precipitated into very small crystals or droplets. The tubes containing the suspension were warmed to approximately 70° C and were then placed in an ultrasonic tank for further solubilization of the lipid derivatives.
(§2) Standard solutions (or suspensions) at 1,000 μg/ml were twofold serially diluted with additional broth to a concentration of 125 μg/ml. A 4-ml amount of each dilution was then quickly, and with constant agitation, dispensed into appropriately labeled screw-capped glass tubes (16 by 125 mm). The tubes were sterilized with steam at 15 psi for 15 minutes. After sterilization, all tubes were cooled and incubated overnight at 35° C to insure sterility.
(§3) All compounds were compared on a molar (micromoles/milliliter) rather than on a mass basis. In the following lists of organisms used, those followed by a parenthetical number are registered with the American Type Culture Collection (ATCC); the remainder were isolates from Providence Hospital or Northland Laboratory.
Staphylococcus aureus, S. epidermidis, beta-hemolytic streptococci (Group A and non-group A), group D streptococcus, Bacillus subtilis (6051), Sarcina lutea (9431), Micrococcus sp., Candida albicans, Nocardia asteroids (3308), Corynebacterium sp. (10700), and pneumococcus (63001).
(§4) One drop (0.04 ± 0.01 ml) of an 18-hr broth culture containing 10^7 and 10^9 organisms/ml was added to each dilution of the test compound, as well as to a tube of plain broth which served as the positive control. After inoculation, the contents of each tube were well mixed, and the tubes were incubated at 35° C in a 5% carbon dioxide + […] atmosphere.
(§5) The MIC is defined as the lowest concentration of compound at which no […] evidence of growth was observed when turbidity of the inoculated broth dilutions was compared with control tubes. […] Only a one-tube difference between the bactericidal and bacteriostatic concentrations was normally observed.
Table 5 presents a comparison of the C10 and C12 free acids and their glyceryl derivatives, and Table 6 gives the corresponding ranges of activity.
(§6) Standard solutions (1000 μg/ml) of three fatty acids and polyglycerol esters thereof were prepared as described in Example I. Also sucrose esters were prepared by transferring the weighed compounds (0.2 gm. dissolved in 1 ml absolute methanol) into 200 ml of sterile Trypticase Soy Broth (TSB). These standard solutions (1000 μg/ml) were twofold serially diluted with additional sterile broth to a concentration of 125 μg/ml. A 3.8 aliquot of each dilution was asceptically delivered into sterile screw-capped culture tubes. All tubes were incubated overnight at 36° C to insure sterility. The microorganisms used in this example were the same as those used in Example I.
The inoculum, 0.05 ml of an 13-24 hour TSB culture (approximately 10^9 organisms/ml) was asceptically delivered into all dilutions of the compounds, mixed well, and incubated at 36° C. […]

Staphylococcus aureus = assay: MIC, agar dilution method (Example XVI); format: cell-based; details: Staphylococcus aureus
Excerpt: (§7) In a manner similar to that described in Example V, the effectiveness of certain food-grade microbecides are compared with mono-esters in an agar dilution method. The very favorable results may be noted from Table 19.

Aspergillus niger = assay: MIC, agar dilution method (Example XVI); format: cell-based; details: Aspergillus niger
Excerpt: as §7

Bacillus subtilis = assay: MIC, agar dilution method (Example XVI); format: cell-based; details: Bacillus subtilis
Excerpt: as §7

Escherichia coli = assay: MIC, agar dilution method (Example XVI); format: cell-based; details: Escherichia coli
Excerpt: as §7

Canadida albicans = assay: MIC, agar dilution method (Example XVI); format: cell-based
Excerpt: as §7

Pseudomonas aeruginosa = assay: MIC, agar dilution method (Example XVI); format: cell-based; details: Pseudomonas aeruginosa
Excerpt: as §7

Group A Strep. = assay: MIC of potassium soaps of unsaturated fatty acids (Example III); format: cell-based, Group A β-hemolytic Streptococci; details: Table 10, Group A Strep.
Pneumococci = assay: MIC, broth dilution (Examples I/II); format: cell-based, pneumococcus (63001); details: Table 1, Pneumococci
Method: as §1, §2, §3, §4, §5, §6
(§8) The inoculum, 0.05 ml of an 13-24 hour TSB culture (approximately 10^9 organisms/ml) was asceptically delivered into all dilutions of the compounds, mixed well, and incubated at 36° C. A tube of inoculated broth without the compound served as a positive control and an uninoculated set of dilutions incubated along with the test dilutions, served as a negative control.
(§9) In those cases in which the test compound itself caused turbidity, an aliquot (0.015 ml) of the mixed broth was inoculated onto an agar plate and incubated at 36° C for examination, as described in Example I. The control procedure of Example I was also repeated. The lauric, capric, and oleic acids were used as internal controls and for comparison to Example I. The minimal inhibitory concentrations (μmole/ml) for the compounds studied are given in Tables 7 and 8.

S. aureus = assay: MIC, broth dilution (Examples I/II); format: cell-based, Staphylococcus aureus; details: Table 1, S. aureus
Method: as §1, §2, §3
One drop (0.04 ± 0.01 ml) of an 18-hr broth culture containing 10^7 and 10^9 organisms/ml was added to each dilution of the test compound, as well as to a tube of plain broth which served as the positive control. […]

Nocardia asteroides = assay: MIC, broth dilution (Examples I/II); format: cell-based, Nocardia asteroids (3308); details: Table 1, Nocardia asteroides
Method: as §1, §2, §3, §4, §5, §6, §8, §9

[2] = test system: Streptococcus β-hemolytic Non-A; assay: MIC, broth dilution (Examples I/II); format: cell-based, beta-hemolytic streptococci non-group A; details: Table 1, Streptococcus β-hemolytic Non-A
Method: as §1, §2, §3, §4, §5, §6, §8, §9

Micrococci = assay: MIC, broth dilution (Examples I/II); format: cell-based, Micrococcus sp.; details: Table 1, Micrococci
Method: as §1, §2, §3, §4, §5, §6, §8, §9

Corynebacteria = assay: MIC, broth dilution (Examples I/II); format: cell-based, Corynebacterium sp. (10700); details: Table 1, Corynebacteria
Method: as §1, §2, §3, §4, §5, §6, §8, §9

Streptococcus Group A = assay: MIC, broth dilution (Examples I/II); format: cell-based, beta-hemolytic streptococci Group A; details: Table 1, Streptococcus Group A
Method: as §1, §2, §3, §4, §5, §6, §8, §9

[3] = Table 19, agar dilution, read-out: MIC

Structure (SMILES): CCCCCCCCCCCC(=O)OCC(O)CO (centres unmarked) [1-mono-laurin]
Antimicrobial activity in words (growth curve) (S. pyogenes): responsible for all antimicrobial activity
Activity relative to 2-mono-laurin [1]: as active as the 2-mono-laurin
Activity in words ([1]; Table 6 footnote): Highly active on all organisms except streptococcus Group D
MIC (Staphylococcus aureus): 39 mg/L (≈ 0.142 mM)
MIC (Aspergillus niger): > 2500 mg/L
MIC (Bacillus subtilis): 39 mg/L (≈ 0.142 mM)
MIC (Escherichia coli): > 2500 mg/L
MIC (Canadida albicans): > 2500 mg/L
MIC (Pseudomonas aeruginosa): > 2500 mg/L

Structure (SMILES): CCCCCC=CCCCCCC=CCCCC(=O)O [.increment.^5 12]
MIC (Group A Strep.): 20 µM

Structure (SMILES): CCCCCCCC=CCCC=CCCCCC(=O)O [.increment.^6 10]
MIC (Group A Strep.): 10 µM

Structure (SMILES): CCCCCCC=CCCCC=CCCCCC(=O)O [.increment.^6 11]
MIC (Group A Strep.): 20 µM

Structure (SMILES): CCCCCC=CCCCCC=CCCCCC(=O)O [.increment.^6 12]
MIC (Group A Strep.): 10 µM

Structure (SMILES): CCCCCC=CCCCC=CCCCCCC(=O)O [.increment.^7 12]
MIC (Group A Strep.): 20 µM

Structure (SMILES): CCCCC/C=C/CC/C=C/CCCCCCC(=O)O [.increment.^8 12]
MIC (Group A Strep.): 20 µM

Structure (SMILES): CCCCCC=CCC=CCCCCCCCC(=O)O [.increment.^9 12]
MIC (Group A Strep.): 10 µM

Structure (SMILES): CC/C=C\C/C=C\C/C=C\CCCCCCCC(=O)O [Linolenic]
MIC (Pneumococci): 179 µM (≈ 49.8 µg/mL)
MIC (S. aureus): 1790 µM (≈ 498 µg/mL)
MIC (Nocardia asteroides): 488 µM (≈ 136 µg/mL)
MIC [2]: 350 µM (≈ 97.5 µg/mL)
MIC (Micrococci): 488 µM (≈ 136 µg/mL)
MIC (Corynebacteria): 179 µM (≈ 49.8 µg/mL)
MIC (Streptococcus Group A): 350 µM (≈ 97.5 µg/mL)

MIC (Staphylococcus aureus; [3]): 5000 mg/L (≈ 32.9 mM)
MIC (Aspergillus niger; [3]): 2500 mg/L (≈ 16.4 mM)
MIC (Bacillus subtilis; [3]): 5000 mg/L (≈ 32.9 mM)
MIC (Escherichia coli; [3]): 2500 mg/L (≈ 16.4 mM)
MIC (Canadida albicans; [3]): 2500 mg/L (≈ 16.4 mM)
MIC (Pseudomonas aeruginosa; [3]): 5000 mg/L (≈ 32.9 mM)
Structure (SMILES): COC(=O)c1ccc(O)cc1 [Methyl paraben]

Structure (SMILES): CCCCCC/C=C\CCCCCCCC(=O)[O-].[Na+] [Palmitoleic acid sodium salt]
MIC (Staphylococcus aureus): 15.6 mg/L
MIC (Aspergillus niger): > 1000 mg/L
MIC (Bacillus subtilis): 500 mg/L
MIC (Escherichia coli): > 1000 mg/L
MIC (Canadida albicans): > 1000 mg/L
MIC (Pseudomonas aeruginosa): > 1000 mg/L
